According to US20230172935A1, “METHODS OF MONITORING KRAS MUTATIONS” (Cardiff Oncology, Inc., priority 2020, published 2023):

Legend:
[1] = cited from earlier work
[2] = tested on: mutant KRAS in cell free DNA in plasma; assay: Phase 1b/2 mCRC study, plasma KRAS mutant by ddPCR; type: in vivo, human; settings: with FOLFIRI and bevacizumab
Protocol: Participants must have histologically confirmed metastatic and unresectable disease, and previously failed treatment or be intolerant to fluoropyrimidine and oxaliplatin with or without bevacizumab.
KRAS in cell free DNA in plasma from patients was periodically quantified using droplet digital PCR (BioRad), where percentage of KRAS that is mutant KRAS was determined. The lower limit of sensitivity of this assay was 0.001% mutant KRAS.
KRAS MAF was measured by digital droplet PCR (ddPCR) at baseline (Cycle 1 Day 1, pre-dose) and on-treatment (Day 1 of Cycles 2 to 9). […] Clinical responses were observed across different KRAS variants, including the 3 most common in CRC. […] In addition, patients with PR and SD tended to have lower on-treatment KRAS MAF than patients with early PD.

DLD-1 cells = assay: Cell viability (CellTiterGlo) in KRAS mutant and WT isogenic CRC cells; type: cell-based; settings: 72h treatment
Excerpt: FIG. 5 is a graph showing cell viability in onvansertib-treated KRAS mutant and WT isogenic CRC cells.
(§1) Onvansertib, an oral and highly-selective PLK1 inhibitor, is a promising therapeutic option for KRAS-mutated CRC. PLK1, a key regulator of mitosis, is overexpressed in CRC and associated with poor clinical parameters.

[3] = tested on: HT29 human colon adenocarcinoma xenografts; settings: in combination with irinotecan; cited from earlier work
[4] = tested on: advanced/metastatic solid tumors; settings: evaluable patients; cited from earlier work
[5] = tested on: HCT-116 KRAS mutant xenograft; assay: HCT-116 KRAS-mutant CRC xenograft model; type: in vivo
Excerpt: FIG. 6A and FIG. 6B are graphs showing anti-tumor activity of onvansertib in combination with irinotecan and 5-FU in the HCT-116 KRAS-mutant CRC xenograft model.
as §1

xenograft tumor = settings: well tolerated doses, oral administration; cited from earlier work
cancer cell lines = settings: cited from earlier work
[6] = tested on: cell lines, both from solid as well as hematologic tumors; settings: large number of cell lines; cited from earlier work
PLK1 = PLK1 (Homo sapiens, UniProt P53350); settings: including other PLK members; cited from earlier work
[7] = tested on: disseminated model of AML; settings: in combination with cytarabine; cited from earlier work
[8] = cited from earlier work; remark: listed apart in the source

PLK1, sequence (P53350 whole entry): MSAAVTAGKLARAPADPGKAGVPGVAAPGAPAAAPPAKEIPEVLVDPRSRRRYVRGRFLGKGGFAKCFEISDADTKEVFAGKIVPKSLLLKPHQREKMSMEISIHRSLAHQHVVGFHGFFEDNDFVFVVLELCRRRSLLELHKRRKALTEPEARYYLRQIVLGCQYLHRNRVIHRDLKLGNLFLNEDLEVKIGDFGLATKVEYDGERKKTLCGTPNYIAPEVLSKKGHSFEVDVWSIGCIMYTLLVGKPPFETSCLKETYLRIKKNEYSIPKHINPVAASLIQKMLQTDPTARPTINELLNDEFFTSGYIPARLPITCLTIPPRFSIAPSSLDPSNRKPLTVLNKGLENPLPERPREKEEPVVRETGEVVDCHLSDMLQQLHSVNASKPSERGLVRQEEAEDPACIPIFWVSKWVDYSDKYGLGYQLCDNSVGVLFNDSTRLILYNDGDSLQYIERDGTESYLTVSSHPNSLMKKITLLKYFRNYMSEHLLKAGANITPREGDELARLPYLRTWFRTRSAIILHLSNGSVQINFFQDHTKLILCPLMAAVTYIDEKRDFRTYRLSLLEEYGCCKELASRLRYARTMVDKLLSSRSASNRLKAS

CN1CCN(c2ccc(OC(F)(F)F)c(Nc3ncc4c(n3)-c3c(c(C(N)=O)nn3CCO)CC4)c2)CC1 [onvansertib, 1-(2-hydroxyethyl)-8-{[5-(4-methylpiperazin-1-yl)-2-(trifluoromethoxy)phenyl]amino}-4,5-dihydro-1H-pyrazolo[4,3-h] quinazoline-3-carboxamide]
half-life ([1]; in vivo): about 24 hours | oral bioavailability ([1]; rodent and nonrodent species): good oral bioavailability | patients with KRAS undetectable within the 1st cycle ([2]; 12 mg/m^2, 4 patients detectable at baseline): 4 patients | patients with KRAS undetectable within the 1st cycle ([2]; 15 mg/m^2, 2 patients detectable at baseline): 1 patients | change of KRAS mutant variants within the first cycle ([2]; five variants in 6 patients, 12 and 15 mg/m^2): decreased | mitotic arrest and cell death, mutant KRAS vs wild-type cells (DLD-1 cells): more profound mitotic arrest and cell death in mutant KRAS cells | tumor regression compared to each agent alone [3]: enhanced tumor regression | patients with stable disease [4]: 5 of 16 | combination effect ([5]; in combination with irinotecan and 5-FU): synergy | anti-tumor activity ([5]; single agent): potent anti-tumor activity | xenograft tumor growth (xenograft tumor): inhibits xenograft tumor growth | effect on cell cycle (cancer cell lines): mitotic cell-cycle arrest followed by apoptosis | potency in proliferation assays [6]: low nanomolar activity | specificity for PLK1 among a panel of 296 kinases (PLK1): high specificity | survival of animals [7]: prolonged survival | primary dose-limiting toxicities ([8]; in vivo): neutropenia and thrombocytopenia | recovery of hematologic toxicities ([8]; reversible): ≤ 3 weeks | recommended phase 2 dose ([8]; single agent): 24 mg/m^2
